Experimental findings from PubChem BioAssay (NCI) are described below.

Among the test systems are 786-0 renal; UACC-62 melanoma; SNB-19 CNS; OVCAR-5 ovarian; T-47D breast; BT-549 breast; HT29 colon; OVCAR-3 ovarian; SK-OV-3 ovarian.
Common to all, as to test: inhibition of tumour cell growth, NCI panel, 48 h

SMILES strings stand for the structures.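 Each compound was tested at five concentrations against cells in 96-well plates for 48 hours. GI50 = concentration required for 50% inhibition of growth. TGI marks complete inhibition of growth.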 A value given as a limit tells only on which side of the number the result lay.

`COc1ccc2oc(=O)cc(C(c3ccc[nH]3)c3ccc[nH]3)c2c1`: the GI50 was 0.281 µM in the assay with 786-0 renal; 0.152 µM in the assay with UACC-62 melanoma; 0.132 µM with SNB-19 CNS; 0.128 µM in the assay on OVCAR-5 ovarian; 0.118 µM in the assay on T-47D breast; below 0.0505 µM with BT-549 breast. Moreover, the results for the GI50 with HT29 colon and in the assay with OVCAR-3 ovarian were 0.104 µM and 0.0803 µM, respectively. The TGI with 786-0 renal stood at 11.5 µM; with UACC-62 melanoma, 14 µM; in the assay with SNB-19 CNS it was 16.4 µM; in the assay with OVCAR-5 ovarian, 19.9 µM; with T-47D breast, 26.6 µM; in the assay with BT-549 breast, 0.389 µM. The TGI turned out to be 0.659 µM in the assay with HT29 colon and 0.146 µM in the assay with OVCAR-3 ovarian.

Consider `CCSCC1CC(O)(c2ccccc2)C(c2ccccc2)C(c2ccc(Cl)cc2)O1` (stereo not drawn), for which the GI50 in the assay with SK-OV-3 ovarian was 2.5 µM; in the assay with 786-0 renal it was 1.64 µM; in the assay with UACC-62 melanoma it was 1.4 µM; in the assay on OVCAR-5 ovarian, 1.82 µM; with T-47D breast, 1.42 µM; with BT-549 breast, 1.76 µM. Moreover, the results for the GI50 with HT29 colon and with OVCAR-3 ovarian were 1.09 µM and 1.74 µM, respectively. Further, the TGI was found to be 7.33 µM with SK-OV-3 ovarian; 3.26 µM in the assay with 786-0 renal; 3.01 µM in the assay with UACC-62 melanoma; 3.54 µM in the assay with OVCAR-5 ovarian; 4.57 µM in the assay with T-47D breast; 3.63 µM in the assay with BT-549 breast. Also, the TGI in the assay on HT29 colon turned out to be 3.17 µM; in the assay on OVCAR-3 ovarian, 4.2 µM.

Regarding `COc1cc2c(cc1O)CC[C@@H]1[C@@H]2CC[C@]2(C)[C@@H](NCCN(C)C)CC[C@@H]12`, the GI50 with SK-OV-3 ovarian is 0.194 µM; in the assay on 786-0 renal, 0.383 µM; with UACC-62 melanoma, 0.0994 µM; in the assay on SNB-19 CNS, 0.4 µM; with OVCAR-5 ovarian, 0.314 µM; with BT-549 breast, 0.334 µM. Further, the GI50 with HT29 colon was 0.101 µM; in the assay on OVCAR-3 ovarian, 0.123 µM. The TGI came out at 0.667 µM in the assay on SK-OV-3 ovarian; 0.831 µM in the assay with 786-0 renal; 0.274 µM with UACC-62 melanoma; 0.966 µM in the assay on SNB-19 CNS; 0.856 µM in the assay with OVCAR-5 ovarian; 0.858 µM in the assay on BT-549 breast. Besides, the figures for the TGI with HT29 colon and in the assay with OVCAR-3 ovarian were 0.393 µM and 0.475 µM, respectively.

On to `CC(C)(C)NNC(=O)/C(=C/c1ccc([N+](=O)[O-])cc1)NC(=O)c1ccccc1`, for which the TGI in the assay on SK-OV-3 ovarian, with 786-0 renal, in the assay on UACC-62 melanoma, with SNB-19 CNS, in the assay on OVCAR-5 ovarian and with HT29 colon was above 100 µM throughout. In the assay on OVCAR-3 ovarian, this molecule displayed a TGI above 100 µM.

`N#Cc1ccccc1NC(=O)/C(=N\N)C(C(=O)c1ccncc1)C1OC(=O)c2ccccc21` (stereo not drawn): the TGI with SK-OV-3 ovarian, with 786-0 renal, in the assay on UACC-62 melanoma, in the assay with SNB-19 CNS, with OVCAR-5 ovarian and in the assay with HT29 colon was above 100 µM each time. This molecule also gave a TGI in the assay on OVCAR-3 ovarian above 100 µM.

As to `CC(C)(C)OC1=C(OC(C)(C)C)C(O)(c2ccccc2)C1=O` (stereo not drawn), the TGI in the assay on SK-OV-3 ovarian, with 786-0 renal, in the assay on UACC-62 melanoma, with SNB-19 CNS, in the assay with OVCAR-5 ovarian and with HT29 colon was above 100 µM each time. This molecule also gave a TGI in the assay with OVCAR-3 ovarian above 100 µM.

For `CC(NS(=O)(=O)c1ccc([N+](=O)[O-])cc1)C(=O)O` (stereo not drawn), the TGI in the assay with SK-OV-3 ovarian, with 786-0 renal, in the assay with UACC-62 melanoma, in the assay with SNB-19 CNS, in the assay on OVCAR-5 ovarian and in the assay with HT29 colon was above 100 µM each time. Also, the TGI with OVCAR-3 ovarian was above 100 µM.

Consider `O=C(Nc1ccccc1-c1n[nH]c(=S)[nH]c1=O)C(F)(F)F`, for which the TGI in the assay with SK-OV-3 ovarian, in the assay on 786-0 renal, in the assay with UACC-62 melanoma, in the assay on SNB-19 CNS, in the assay with OVCAR-5 ovarian and in the assay with HT29 colon was above 100 µM in each case. Besides, the TGI with OVCAR-3 ovarian is above 100 µM.

With `CN(Cc1cnc2nc(N)nc(N)c2n1)c1ccc(C(=O)NC(CCC(=O)O)C(=O)O)cc1C(F)(F)F` (stereo not drawn), the TGI in the assay with SK-OV-3 ovarian, with 786-0 renal, with SNB-19 CNS, with OVCAR-5 ovarian, in the assay with T-47D breast and in the assay on HT29 colon was above 100 µM each time. This molecule returned a TGI in the assay with OVCAR-3 ovarian above 100 µM.

With `CC(C)/C=C1\CCC(CN2CCCC2)C1=O` (stereo not drawn), the TGI is above 100 µM in the assay on SK-OV-3 ovarian; 4.8 µM in the assay with 786-0 renal; 47.4 µM in the assay with UACC-62 melanoma; above 64.2 µM with SNB-19 CNS; 35.2 µM with OVCAR-5 ovarian; 25.6 µM with HT29 colon. The molecule also came in with a TGI with OVCAR-3 ovarian of 31.8 µM.

For the molecule `Cc1ccc2c(c1)C(C)Cc1c(ncnc1-n1cnc3ccccc31)N2C` (stereo not drawn), the GI50 in the assay with SK-OV-3 ovarian was 0.475 µM; in the assay with 786-0 renal it was 0.737 µM; with SNB-19 CNS, 0.537 µM; in the assay on T-47D breast, 0.601 µM; in the assay with BT-549 breast it was 1.37 µM; in the assay on HT29 colon it was 0.34 µM. Further, the GI50 with OVCAR-3 ovarian is 0.313 µM. For the same molecule, the TGI in the assay with SK-OV-3 ovarian turned out to be 13.5 µM; with 786-0 renal, 19.8 µM; in the assay on SNB-19 CNS it was 21 µM; in the assay on T-47D breast, 32.2 µM; in the assay with BT-549 breast, 20.6 µM; in the assay with HT29 colon it was 12.1 µM. This molecule also returned a TGI in the assay on OVCAR-3 ovarian of 10.8 µM.

Consider `O=C(Nc1ccc(Cl)cc1Cl)C1C(=O)N(c2ccc(Cl)cc2Cl)C(=O)/C1=N\Nc1ccc([N+](=O)[O-])cc1[N+](=O)[O-]` (stereo not drawn), for which the TGI in the assay with SK-OV-3 ovarian, with 786-0 renal, in the assay on UACC-62 melanoma, in the assay with SNB-19 CNS, in the assay with OVCAR-5 ovarian and in the assay with HT29 colon was above 100 µM each time. In the assay on OVCAR-3 ovarian, this molecule displayed a TGI above 100 µM.

For `Clc1ncnc(Cl)c1Cl`, the TGI with SK-OV-3 ovarian, in the assay with 786-0 renal, in the assay on UACC-62 melanoma, in the assay on SNB-19 CNS, in the assay with OVCAR-5 ovarian and with T-47D breast was above 100 µM each time. In addition, the TGI in the assay on HT29 colon and with OVCAR-3 ovarian was above 100 µM in each case.

With `CC1CC[C@]2(C(=O)O)CCC3(COC(=O)/C=C\c4ccc(O)cc4)C(=CCC4[C@@]5(C)CC[C@H](O)C(C)(C)C5CC[C@]43C)[C@@H]2[C@H]1C` (stereo partly drawn), the TGI in the assay with SK-OV-3 ovarian stood at 21.6 µM; in the assay with 786-0 renal, 43.4 µM; in the assay on UACC-62 melanoma, 32.6 µM; in the assay with SNB-19 CNS, 32.7 µM; with OVCAR-5 ovarian it was 48.9 µM; in the assay on HT29 colon, 35.5 µM. This molecule returned a TGI in the assay with OVCAR-3 ovarian of 37.1 µM.
